Test results reported in patent US20250059124A1, “METHOD FOR STORING REDUCED COENZYME Q10” (KANEKA CORPORATION, priority 2021, published 2025).

Columns and labels:
[1] = Water activity measurement (AquaLab Series 4TE); type: physicochemical; conditions: water activity in packaged body with controlled internal relative humidity
Procedure: The water activity was measured with AquaLab Series 4TE (METER Group Inc.). A sample having a volume of about 5 ml in a sample dish was placed in AquaLab Series 4TE, and the water activity at 25° C. was measured.

[2] = Oxidation stability on storage (QH residual rate by HPLC); type: physicochemical
Procedure: The weight ratio of reduced coenzyme Q10 to total coenzyme Q10 (namely, reduced coenzyme Q10/(oxidized coenzyme Q10+reduced coenzyme Q10)) is defined as “QH ratio”. The QH ratio was determined by the following HPLC analysis. For the evaluation of oxidation stability, a rate of the change in the QH ratio at the end of the evaluation from that at the beginning of the evaluation was defined as “QH residual rate”, and the QH residual rate determined from the following expression was used as a measure of oxidation stability.
QH residual rate (%)=100×QH ratio at the end of the evaluation/QH ratio at the beginning of the evaluation
• Column: SYMMETRY C18 (manufactured by Waters); 250 mm (length), 4.6 mm (inner diameter) • Mobile phase: C2H5OH: CH3OH=4:3 (v:v) • Detection wavelength: 210 nm • Flow rate: 1 mL/min

[3] = stored 2 weeks at 40° C., 0.2 g in opened state in packaged body of controlled relative humidity (11% or 48%)

Water activity [1]	QH residual rate (%) [2, 3] [%]	Compound	QH residual rate (%) ([2]; stored 4 weeks at 40° C. and relative humidity 75%, 0.2 g in sealed container, internal relative humidity 48%)	QH residual rate (%) ([2]; stored 2 weeks at 40° C. and relative humidity 75%, 0.2 g in sealed container, internal relative humidity 48%)
–	–	COc1c(O)c(C)c(C/C=C(\C)CC/C=C(\C)CC/C=C(\C)CC/C=C(\C)CC/C=C(\C)CC/C=C(\C)CC/C=C(\C)CC/C=C(\C)CC/C=C(\C)CCC=C(C)C)c(O)c1OC [Comparative Example 2, reduced coenzyme Q10]	–	37.2
0.48	82.6	co-crystal composed of QH and nicotinamide [Comparative Example 3]	–	–
0.11	94.7	co-crystal composed of QH and nicotinamide [Example 5]	–	–

Compound	Water activity [1]	QH residual rate (%) [2, 3] [%]	QH residual rate (%) ([2]; stored 4 weeks at 40° C. and relative humidity 75%, 0.2 g in sealed container, internal relative humidity 48%)	QH residual rate (%) ([2]; stored 2 weeks at 40° C. and relative humidity 75%, 0.2 g in sealed container, internal relative humidity 48%)
COc1c(O)c(C)c(C/C=C(\C)CC/C=C(\C)CC/C=C(\C)CC/C=C(\C)CC/C=C(\C)CC/C=C(\C)CC/C=C(\C)CC/C=C(\C)CC/C=C(\C)CCC=C(C)C)c(O)c1OC [Comparative Example 1, reduced coenzyme Q10]	0.48	–	82.1	–
